Results published in US20260248833A1, “PYRIMIDINE NUCLEOSIDE TREATMENTS” (The Children`s Medical Center Corporation, priority 2022, published 2026).

How the values were obtained:
[1] = tested on: pCHK1-S345 and pRPA32-S33; assay: Immunoblot of replication stress signaling in iPSCs; assay type: cell-based, human; conditions: iPSCs treated with dT
[2] = tested on: TERC−/− 293T cells stably expressing dmDNK; assay: Telomere DNA content blot in dmDNK expressing cells; assay type: cell-based, human; conditions: TERT and TERC transfected, nucleoside 24-30 hrs, versus eGFP control
From the text: Combining thymidine treatment with expression of a nucleoside kinase to improve efficiency of nucleoside uptake and thereby promote telomere lengthening. combining nucleoside treatment with the expression of TK1, or the deoxynucleoside kinase from Drosophila (dmDNK), either of which can be delivered via mRNA. See FIG. 29A-B. TERC-/- 293T cells stably expressing dmDNK or eGFP (control) were transfected with vectors to express […], then cultured in the indicated doses of nucleoside, followed by analysis of telomere DNA content via blotting and detection with a complementary oligonucleotide probe.

[3] = tested on: pCHK1-S345 and pRPA32-S33; assay: Immunoblot of replication stress signaling in super-telomerase cells; assay type: cell-based, human
[4] = cited from earlier work
[5] = tested on: mouse model of TK2 deficiency; conditions: 520 mg/kg/day of dT; cited from earlier work
293T cells = assay: Cell cycle analysis by DAPI staining and flow cytometry, 293T cells; assay type: cell-based, human
Method: Cell cycle analysis by DNA content staining and flow cytometry: Cells were prepared either for flow-FISH staining as described (for experiments in FIG. 5) or by ethanol fixation (for data in FIG. 6, 27), followed by rehydration and counterstaining using DAPI (BD Biosciences) and analysis on an LSR-II or Fortessa analyzer (BD Biosciences) using BD FACSDiva 8.0.2. Cells were gated on FSC/SSC as described in FIG. 6d using FlowJo V10.7.1.

telomerase = assay: TRAP assay on lysates from 293T cells treated with dT; assay type: cell-based, human; conditions: 293T cells treated with or without 100 μM dT, 3 days
Method: TRAP assay: cell extracts for TRAP assays were made using TRAPeze™1×CHAPS Lysis Buffer (Roche) supplemented with RNASEin (Promega). Standard TRAP reactions (in FIG. 25a) were performed as described, with cell input normalized across samples using the Bio-Rad DC assay. TRAP assays were modified to enable unique dNTP concentrations in telomerase reactions from PCR reactions (FIG. 25) as follows: reactions were assembled with 1×TRAP buffer (20 mM Tris-HCl, pH 8.3; 1.5 mM MgCl2; 63 mM KCl; 0.05% Tween 20; 1 mM EGTA), TS, ACX, TNST, and NT primers as described (see Primers/Oligos below), dNTPs were added at physiologic concentrations (dATP 24 μM, dGTP 5.2 μM, dCTP 29 μM, dTTP 37 μM) unless otherwise mentioned in the figure legend, followed by telomerase extracts. TRAP assays were modified to detect GGAAAG repeats using the following primers: TS GGAAAG, TNST GGAAAG, ACX GGAAAG, and NT (see Primers/Oligos below). After addition of telomerase extracts, reactions were incubated for 30 minutes at 30° C. followed by heat inactivation at 95° C. for 5 minutes. […] Images were quantified for a given lane using ImageJ by measuring the signal of the telomerase repeat sized products divided by the signal of the internal control band for the lane, normalized to the same ratio for the untreated sample(s) in a given experiment. […]

cell cycle progression = conditions: cited from earlier work
[6] = tested on: iPSCs from a healthy donor; assay: TRF Southern blot telomere length, wildtype iPSCs; assay type: cell-based, human
Method: Cell culture: K562 cells (ATCC) were grown in RPMI1 1640 (Gibco) media supplemented with 10% fetal bovine serum. 293T cells (ATCC) were grown in DMEM (Gibco) supplemented with 10% fetal bovine serum, and were subcultured using 0.05% trypsin (Gibco). iPSCs were derived, characterized and cultured as previously described. iPSCs were grown in Essential 8 Media (Life Technologies) supplemented with the ROCK inhibitor Y271632 (Stem Cell Technologies) at 10 μM on plates coated with hES qualitied Matrigel matrix (Corning) and were subcultured using Accutase (Stem Cell Technologies).
Terminal Restriction Fragment Length Analysis: genomic DNA was isolated from cells using the Invitrogen Purelink Genomic DNA mini kit (Invitrogen). 1-3 μg of gDNA was digested with RsaI and HinfI for 2-3 hrs at 37° C. and loaded onto a 0.6% agarose gel followed by Southern blotting using the Telotaggg Telomere Length Assay Kit (Roche). Quantification was performed using the WALTER webtool.

Cc1cn([C@H]2C[C@H](O)[C@@H](CO)O2)c(=O)[nH]c1=O [dT, 1-[(2R,4S,5R)-4-Hydroxy-5-(hydroxymethyl)oxolan-2-yl]-5-methylpyrimidine-2,4 (1H,3H)-dione]
replication stress signaling [1]: no indication of replication stress signaling | telomere lengthening with expression of a nucleoside kinase (dmDNK) [2]: Enhanced telomere lengthening from the combination of expressing a nucleoside kinase with dT treatment | replication stress signaling at the telomere-active dose ([3]; 40 μM dT): far below doses that induce replication stress signaling | replication stress signaling ([3]; highest doses, 30 hours): induced similar levels of replication stress signaling | aqueous solubility [4]: about 50 mg/ml | lifespan [5]: increased lifespan in a mouse model of TK2 deficiency | dT doses with no detectable changes in cell cycle distribution (293T cells): below 100 μM | telomerase activity in lysates (abundance of active telomerase enzymes) (telomerase): no difference in telomerase activity | doses typically used to synchronize cells in S phase (cell cycle progression): 1 to 2 mM | telomere elongation ([6]; 100 μM dT, three weeks): ~ 2000 bp | telomere elongation ([6]; dT for three weeks): significantly elongated telomeres
